Experimental data: patent publication US20260262643A1, “HERBICIDAL BENZOXAZINES” (FMC CORPORATION, priority 2022, published 2026)

Key:
corn [1] = assay: Test C postemergence; assay type: in vivo, Zea mays; conditions: 10 days
In short: (§1)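 Greenhouse herbicide screen, 10-day duration. Test chemicals in solvent/surfactant blend were sprayed onto soil at sowing (pre) or onto 2–10 cm seedlings at one to two leaves (post); injury scored visually against controls, 0 no effect to 100 complete control.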

ryegrass, Italian [2] = assay: Test C postemergence; assay type: in vivo, Lolium multiflorum; conditions: 10 days
In short: as §1

oat, wild [3] = assay: Test C preemergence; assay type: in vivo, Avena fatua; conditions: 0 to 100 scale (0 no effect, 100 complete control); for Plant response rating, Oat, Wild: Preemergence, 500 g ai/ha, visual rating after 10 days; for Oat, Wild plant response rating: Test C, preemergence, 125 g ai/ha
In short: as §1

horseweed = assay: Test C postemergence; assay type: in vivo, Erigeron canadensis; conditions: 10 days
In short: as §1

barnyardgrass [4] = assay: Test C postemergence; assay type: in vivo, Echinochloa crusgalli; conditions: 10 days
In short: as §1

blackgrass [5] = assay: Test C postemergence; assay type: in vivo, Alopecurus myosuroides; conditions: 10 days
In short: as §1

ragweed [6] = assay: Test C postemergence; assay type: in vivo, Ambrosia artemisiifolia; conditions: 10 days
In short: as §1

pigweed, palmer [7] = assay: Test C preemergence; assay type: in vivo, Amaranthus palmeri; conditions: 0 to 100 scale (0 no effect, 100 complete control); for Plant response rating, Pigweed, Palmer: Preemergence, 500 g ai/ha, visual rating after 10 days; for Pigweed, Palmer plant response rating: Test C, preemergence, 125 g ai/ha
In short: as §1

kochia [8] = assay: Test C postemergence; assay type: in vivo, Bassia scoparia; conditions: 10 days
In short: as §1

soybean [9] = assay: Test C preemergence; assay type: in vivo, Glycine max; conditions: 0 to 100 scale (0 no effect, 100 complete control); for Plant response rating, Soybean: Preemergence, 500 g ai/ha, visual rating after 10 days; for Soybean plant response rating: Test C, preemergence, 125 g ai/ha
In short: as §1

blackgrass [10] = assay: Test C preemergence; assay type: in vivo, Alopecurus myosuroides; conditions: 0 to 100 scale (0 no effect, 100 complete control); for Plant response rating, Blackgrass: Preemergence, 500 g ai/ha, visual rating after 10 days; for Blackgrass plant response rating: Test C, preemergence, 125 g ai/ha
In short: as §1

wheat [11] = assay: Test C postemergence; assay type: in vivo, Triticum aestivum; conditions: 10 days
In short: as §1

green foxtail [12] = assay: Test C preemergence; assay type: in vivo, Setaria viridis; conditions: 0 to 100 scale (0 no effect, 100 complete control); for Plant response rating, Foxtail, Green: Preemergence, 500 g ai/ha, visual rating after 10 days; for Foxtail, Green plant response rating: Test C, preemergence, 125 g ai/ha
In short: as §1

corn [13] = assay: Test C preemergence; assay type: in vivo, Zea mays; conditions: 0 to 100 scale (0 no effect, 100 complete control); for Plant response rating, Corn: Preemergence, 500 g ai/ha, visual rating after 10 days; for Corn plant response rating: Test C, preemergence, 125 g ai/ha
In short: as §1

ryegrass, Italian [14] = assay: Test C preemergence; assay type: in vivo, Lolium multiflorum; conditions: 0 to 100 scale (0 no effect, 100 complete control); for Plant response rating, Ryegrass, Italian: Preemergence, 500 g ai/ha, visual rating after 10 days; for Ryegrass, Italian plant response rating: Test C, preemergence, 125 g ai/ha
In short: as §1

barnyardgrass [15] = assay: Test D flooded paddy test; assay type: in vivo, Echinochloa crus-galli; conditions: 250 g ai/ha, applied to paddy water, visual rating after 13 to 14 days, scale 0 to 100 (0 no effect, 100 complete control)
In short: (§2)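 Post-flood water application at the 2-leaf stage; 3 cm flood depth kept constant; visual control rating 0–100 after 13–14 days greenhouse growth.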

ducksalad = assay: Test D flooded paddy test; assay type: in vivo, Heteranthera limosa; conditions: 250 g ai/ha, applied to paddy water, visual rating after 13 to 14 days, scale 0 to 100 (0 no effect, 100 complete control)
In short: as §2

oat, wild [16] = assay: Test C postemergence; assay type: in vivo, Avena fatua; conditions: 10 days
In short: as §1

ragweed [17] = assay: Test C preemergence; assay type: in vivo, Ambrosia artemisiifolia; conditions: 0 to 100 scale (0 no effect, 100 complete control); for Plant response rating, Ragweed: Preemergence, 500 g ai/ha, visual rating after 10 days; for Ragweed plant response rating: Test C, preemergence, 125 g ai/ha
In short: as §1

rice = assay: Test D flooded paddy test; assay type: in vivo, Oryza sativa; conditions: 250 g ai/ha, applied to paddy water, visual rating after 13 to 14 days, scale 0 to 100 (0 no effect, 100 complete control)
In short: as §2

sedge, umbrella = assay: Test D flooded paddy test; assay type: in vivo, Cyperus difformis; conditions: 250 g ai/ha, applied to paddy water, visual rating after 13 to 14 days, scale 0 to 100 (0 no effect, 100 complete control)
In short: as §2

wheat [18] = assay: Test C preemergence; assay type: in vivo, Triticum aestivum; conditions: 0 to 100 scale (0 no effect, 100 complete control); for Plant response rating, Wheat: Preemergence, 500 g ai/ha, visual rating after 10 days; for Wheat plant response rating: Test C, preemergence, 125 g ai/ha
In short: as §1

pigweed, palmer [19] = assay: Test C postemergence; assay type: in vivo, Amaranthus palmeri; conditions: 10 days
In short: as §1

green foxtail [20] = assay: Test C postemergence; assay type: in vivo, Setaria viridis; conditions: 10 days
In short: as §1

soybean [21] = assay: Test C postemergence; assay type: in vivo, Glycine max; conditions: 10 days
In short: as §1

barnyardgrass [22] = assay: Test C preemergence; assay type: in vivo, Echinochloa crusgalli; conditions: 0 to 100 scale (0 no effect, 100 complete control); for Plant response rating, Barnyardgrass: Preemergence, 500 g ai/ha, visual rating after 10 days; for Barnyardgrass plant response rating: Test C, preemergence, 125 g ai/ha
In short: as §1

kochia [23] = assay: Test C preemergence; assay type: in vivo, Bassia scoparia; conditions: 0 to 100 scale (0 no effect, 100 complete control); for Plant response rating, Kochia: Preemergence, 500 g ai/ha, visual rating after 10 days; for Kochia plant response rating: Test C, preemergence, 125 g ai/ha
In short: as §1

[24] = 125 g ai/ha, postemergence, 0 to 100 scale, 0 no effect, 100 complete control
[25] = Postemergence, 500 g ai/ha, visual 0 to 100 scale (0 no effect, 100 complete control)

COc1cc(-n2cnc(C(C)C)n2)cc(C(=O)N2C[C@H](C)Oc3c(Cl)cccc32)c1OC [Compound 194, [(2S)-8-chloro-2-methyl-2,3-dihydro-1,4-benzoxazin-4-yl]-[5-(3-isopropyl-1,2,4-triazol-1-yl)-2,3-dimethoxy-phenyl]methanone]
Corn plant response rating (crop injury, 0 = no effect, 100 = complete kill) at 125 g/ha (corn [1]; Zea mays, post-emergence, 240 h, 125 g ai/ha, postemergence, 0 to 100 scale (0 no effect, 100 complete control)): 10%
Corn plant response rating (crop injury, 0 = no effect, 100 = complete kill) at 500 g/ha (corn [1]; Zea mays, post-emergence, 240 h, Postemergence, 500 g ai/ha, visual 0 to 100 scale (0 no effect, 100 complete control)): 20%
Plant response rating, Ryegrass, Italian (ryegrass, Italian [2]; [24]): 30
Plant response rating, Ryegrass, Italian (ryegrass, Italian [2]; [25]): 70
Plant response rating, Oat, Wild (oat, wild [3]): 90
Oat, Wild plant response rating (oat, wild [3]): 20
Plant response rating, Horseweed (horseweed; [24]): 0
Plant response rating, Horseweed (horseweed; [25]): 0
Plant response rating, Barnyardgrass (barnyardgrass [4]; [24]): 10
Plant response rating, Barnyardgrass (barnyardgrass [4]; [25]): 30
pest or weed control at 125 g/ha (blackgrass [5]; Alopecurus myosuroides, post-emergence, 240 h, 125 g ai/ha, postemergence, 0 to 100 scale (0 no effect, 100 complete control), read-out: Plant response rating, Blackgrass): 0%
pest or weed control at 500 g/ha (blackgrass [5]; Alopecurus myosuroides, post-emergence, 240 h, Postemergence, 500 g ai/ha, visual 0 to 100 scale (0 no effect, 100 complete control), read-out: Plant response rating, Blackgrass): 30%
Plant response rating, Ragweed (ragweed [6]; [24]): 0
Plant response rating, Ragweed (ragweed [6]; [25]): 50
Plant response rating, Pigweed, Palmer (pigweed, palmer [7]): 30
Pigweed, Palmer plant response rating (pigweed, palmer [7]): 20
Plant response rating, Kochia (kochia [8]; [24]): 10
Plant response rating, Kochia (kochia [8]; [25]): 80
Plant response rating, Soybean (soybean [9]): 10
Soybean plant response rating (soybean [9]): 10
Plant response rating, Blackgrass (blackgrass [10]): 80
Blackgrass plant response rating (blackgrass [10]): 20
Plant response rating, Wheat (wheat [11]; [24]): 20
Plant response rating, Wheat (wheat [11]; [25]): 20
Plant response rating, Foxtail, Green (green foxtail [12]): 100
Foxtail, Green plant response rating (green foxtail [12]): 70
Plant response rating, Corn (corn [13]): 30
Corn plant response rating (corn [13]): 0
Plant response rating, Ryegrass, Italian (ryegrass, Italian [14]): 90
Ryegrass, Italian plant response rating (ryegrass, Italian [14]): 70
Plant response rating, Barnyardgrass (Flood) (barnyardgrass [15]): 0
Plant response rating, Ducksalad (Flood) (ducksalad): 0
Plant response rating, Oat, Wild (oat, wild [16]; [24]): 0
Plant response rating, Oat, Wild (oat, wild [16]; [25]): 20
Plant response rating, Ragweed (ragweed [17]): 20
Ragweed plant response rating (ragweed [17]): 20
Plant response rating, Rice (Flood) (rice): 0
Plant response rating, Sedge, Umbrella (Flood) (sedge, umbrella): 0
Plant response rating, Wheat (wheat [18]): 50
Wheat plant response rating (wheat [18]): 0
Plant response rating, Pigweed, Palmer (pigweed, palmer [19]; [24]): 0
Plant response rating, Pigweed, Palmer (pigweed, palmer [19]; [25]): 20
Plant response rating, Foxtail, Green (green foxtail [20]; [24]): 10
Plant response rating, Foxtail, Green (green foxtail [20]; [25]): 50
Plant response rating, Soybean (soybean [21]; [24]): 90
Plant response rating, Soybean (soybean [21]; [25]): 90
Plant response rating, Barnyardgrass (barnyardgrass [22]): 70
Barnyardgrass plant response rating (barnyardgrass [22]): 10
Plant response rating, Kochia (kochia [23]): 0
Kochia plant response rating (kochia [23]): 0

Cc1ccc(-n2cnc(CS(C)(=O)=O)n2)cc1C(=O)N1C[C@H](C)Oc2c(Cl)cccc21 [Compound 225]
Plant response rating, Corn (corn [1]; [24]): 80
Plant response rating, Corn (corn [1]; [25]): 90
Plant response rating, Ryegrass, Italian (ryegrass, Italian [2]; [24]): 70
Plant response rating, Ryegrass, Italian (ryegrass, Italian [2]; [25]): 90
Plant response rating, Oat, Wild (oat, wild [3]): 90
Oat, Wild plant response rating (oat, wild [3]): 60
Plant response rating, Horseweed (horseweed; [24]): 20
Plant response rating, Horseweed (horseweed; [25]): 80
Plant response rating, Barnyardgrass (barnyardgrass [4]; [24]): 20
Plant response rating, Barnyardgrass (barnyardgrass [4]; [25]): 70
Plant response rating, Blackgrass (blackgrass [5]; [24]): 50
Plant response rating, Blackgrass (blackgrass [5]; [25]): 90
Plant response rating, Ragweed (ragweed [6]; [24]): 90
Plant response rating, Ragweed (ragweed [6]; [25]): 90
Plant response rating, Pigweed, Palmer (pigweed, palmer [7]): 100
Pigweed, Palmer plant response rating (pigweed, palmer [7]): 100
Plant response rating, Kochia (kochia [8]; [24]): 80
Plant response rating, Kochia (kochia [8]; [25]): 90
Plant response rating, Soybean (soybean [9]): 90
Soybean plant response rating (soybean [9]): 80
Plant response rating, Blackgrass (blackgrass [10]): 80
Blackgrass plant response rating (blackgrass [10]): 60
Plant response rating, Wheat (wheat [11]; [24]): 30
Plant response rating, Wheat (wheat [11]; [25]): 90
Plant response rating, Foxtail, Green (green foxtail [12]): 100
Foxtail, Green plant response rating (green foxtail [12]): 100
Plant response rating, Corn (corn [13]): 90
Corn plant response rating (corn [13]): 20
Plant response rating, Ryegrass, Italian (ryegrass, Italian [14]): 80
Ryegrass, Italian plant response rating (ryegrass, Italian [14]): 60
Plant response rating, Barnyardgrass (Flood) (barnyardgrass [15]): 25
Plant response rating, Ducksalad (Flood) (ducksalad): 100
Plant response rating, Oat, Wild (oat, wild [16]; [24]): 60
Plant response rating, Oat, Wild (oat, wild [16]; [25]): 70
Plant response rating, Ragweed (ragweed [17]): 90
Ragweed plant response rating (ragweed [17]): 70
Plant response rating, Rice (Flood) (rice): 15
Plant response rating, Sedge, Umbrella (Flood) (sedge, umbrella): 100
Plant response rating, Wheat (wheat [18]): 80
Wheat plant response rating (wheat [18]): 20
Plant response rating, Pigweed, Palmer (pigweed, palmer [19]; [24]): 90
Plant response rating, Pigweed, Palmer (pigweed, palmer [19]; [25]): 100
Plant response rating, Foxtail, Green (green foxtail [20]; [24]): 20
Plant response rating, Foxtail, Green (green foxtail [20]; [25]): 90
Plant response rating, Soybean (soybean [21]; [24]): 100
Plant response rating, Soybean (soybean [21]; [25]): 100
Plant response rating, Barnyardgrass (barnyardgrass [22]): 100
Barnyardgrass plant response rating (barnyardgrass [22]): 50
Plant response rating, Kochia (kochia [23]): 100
Kochia plant response rating (kochia [23]): 20
